Data on 23 compounds can be found in US8563729B2, “Thienopyridone derivatives as AMP-activated protein kinase (AMPK) activators” (Merck Patent GmbH, priority 2008, dated 2013).

The target of test [1] is T1, AMPK protein (recombinant α1β1γ2) (Homo sapiens, UniProt Q13131+Q9Y478).
T1 construct: made in house; host or cells: E. coli
Put plainly: AMPK enzymatic activity (Delfia, AMARA peptide substrate). To be noted: compound 30 μM vs AMP 30 μM; 125 μM ATP; ratio 90% or higher = direct activator. It counts as biochemical. In outline: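 Human α1β1γ2 AMPK expressed in E. coli, reactivated in vitro by LKB1, assayed in 50 mM Hepes pH 7.4 with 125 μM ATP and AMARA peptide for 30 min at room temperature; phosphorylation detected by Delfia anti-phosphoserine antibody. Activity = % of basal control at 30 μM compound relative to that of 30 μM AMP.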

The subject of test [2] is H-2 Kb cells. Briefly: Glucose uptake in H-2 Kb cells (in vitro cellular test). It counts as cell-based, mouse. The conditions noted are these: H-2 Kb cells differentiated in muscle, 4 hours incubation, 2-deoxy-D-[1,2 3H] glucose uptake 10 min. A digest of the protocol:
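H-2 Kb tsA58 mouse cells were differentiated to muscle at 37° C without interferon-γ for 3 days, then exposed to compound for 4 h in 1 g/l glucose DMEM. Uptake of 3H-2-deoxyglucose over 10 min was measured by scintillation. Activity was taken as the compound concentration matching or exceeding uptake with insulin (170 nM), scored ≦10 or >10 micro Molar.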

The conditions of test [3]: ob/ob and db/db mice, 8 day AICAR administration; cited from earlier work.

T1 sequence (Q13131 whole entry): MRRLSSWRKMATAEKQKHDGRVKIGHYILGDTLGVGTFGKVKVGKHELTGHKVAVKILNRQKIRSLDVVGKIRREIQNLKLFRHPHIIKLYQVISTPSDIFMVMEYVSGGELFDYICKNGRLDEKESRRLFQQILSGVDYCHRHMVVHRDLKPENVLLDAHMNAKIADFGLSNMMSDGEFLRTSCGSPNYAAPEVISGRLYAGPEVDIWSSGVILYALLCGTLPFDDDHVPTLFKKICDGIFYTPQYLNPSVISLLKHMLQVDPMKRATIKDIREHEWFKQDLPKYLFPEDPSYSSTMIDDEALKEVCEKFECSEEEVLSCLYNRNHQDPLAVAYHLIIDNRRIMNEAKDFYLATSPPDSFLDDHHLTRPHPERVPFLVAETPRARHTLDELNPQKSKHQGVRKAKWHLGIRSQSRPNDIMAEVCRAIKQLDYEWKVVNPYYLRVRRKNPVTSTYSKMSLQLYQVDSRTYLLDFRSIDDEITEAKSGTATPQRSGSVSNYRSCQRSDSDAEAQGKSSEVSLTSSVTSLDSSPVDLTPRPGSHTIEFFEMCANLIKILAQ
T1 sequence (Q9Y478 whole entry): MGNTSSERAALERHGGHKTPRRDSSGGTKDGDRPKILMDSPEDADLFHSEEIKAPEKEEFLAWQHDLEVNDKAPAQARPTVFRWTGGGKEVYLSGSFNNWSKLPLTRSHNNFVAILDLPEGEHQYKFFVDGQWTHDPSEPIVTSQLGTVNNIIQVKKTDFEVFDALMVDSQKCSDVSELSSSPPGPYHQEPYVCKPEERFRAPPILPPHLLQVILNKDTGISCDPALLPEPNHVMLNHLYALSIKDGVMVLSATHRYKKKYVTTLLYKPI
T1 sequence (Q9UGJ0 whole entry partner): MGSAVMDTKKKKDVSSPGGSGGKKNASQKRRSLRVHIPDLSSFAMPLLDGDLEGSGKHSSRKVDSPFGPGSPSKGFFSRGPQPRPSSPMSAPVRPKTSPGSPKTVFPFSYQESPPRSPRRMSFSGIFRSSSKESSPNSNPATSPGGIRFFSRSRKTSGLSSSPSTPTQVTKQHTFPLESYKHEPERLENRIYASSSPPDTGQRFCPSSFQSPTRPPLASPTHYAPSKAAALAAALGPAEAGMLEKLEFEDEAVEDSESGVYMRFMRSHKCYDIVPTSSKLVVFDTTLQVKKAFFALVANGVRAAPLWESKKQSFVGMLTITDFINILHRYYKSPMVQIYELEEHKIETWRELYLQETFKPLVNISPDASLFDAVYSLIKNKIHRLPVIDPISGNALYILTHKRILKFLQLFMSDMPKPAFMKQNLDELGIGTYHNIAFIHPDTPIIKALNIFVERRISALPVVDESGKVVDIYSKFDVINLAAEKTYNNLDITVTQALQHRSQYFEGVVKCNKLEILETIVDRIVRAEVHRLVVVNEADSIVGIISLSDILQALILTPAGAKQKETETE

In the case of `O=c1[nH]c2sc(Cl)c(-c3ccc4ccccc4c3O)c2c(O)c1-c1ccccc1` [Compound 136], the “activity: Ratio between the % of control (basal activity) of compound of formula (I) at 30 μM and the % of control (basal activity) of AMP at 30 μM” value (“activity: Ratio between the % of control” below) in test [1] was 488%. For the same compound, the “Activity (table III): Concentration of compound (I) for a glucose uptake equal or higher to glucose uptake induced by insulin (170 nM)” value (from here on “Activity (table III): Concentration”) in test [2] was “** (^++ or **concentration of compound (I) ≦10 micro Molar)”.

Consider `O=c1[nH]c2sc(Cl)c(-c3ccc4c(Cl)cccc4c3O)c2c(O)c1-c1ccccc1` [Compound 184], for which the “activity: Ratio between the % of control” value in test [1] amounted to 167%. In addition, the “Activity (table III): Concentration” value in test [2] was “++ (^++ or **concentration of compound (I) ≦10 micro Molar)”.

With `Cc1sc2[nH]c(=O)c(-c3ccccc3)c(O)c2c1-c1ccccc1` [Compound 10], the “activity: Ratio between the % of control” value in test [1] came out at 96%. Moreover, the “Activity (table III): Concentration” value in test [2] is reported as “* (^+ or *concentration of compound (I) >10 micro Molar)”.

For the compound `O=c1[nH]c2sc(Cl)c(-c3ccc4ccccc4c3O)c2c(O)c1-c1ccc(F)cc1` [Compound 185], the “activity: Ratio between the % of control” value in test [1] stood at 284%. In addition, in test [2], the “Activity (table III): Concentration” value is “++ (^++ or **concentration of compound (I) ≦10 micro Molar)”.

With `O=c1[nH]c2scc(-c3ccc(F)cc3)c2c(O)c1-c1ccccc1` [Compound 27], the “activity: Ratio between the % of control” value in test [1] turned out to be 114%. Also, the “Activity (table III): Concentration” value in test [2] is recorded as “* (^+ or *concentration of compound (I) >10 micro Molar)”.

For the compound `COc1cccc(-c2c(O)c3c(-c4ccccc4)c(C)sc3[nH]c2=O)c1` [Compound 15], the “activity: Ratio between the % of control” value in test [1] was determined as 181%. Besides, the “Activity (table III): Concentration” value in test [2] is “* (^+ or *concentration of compound (I) >10 micro Molar)”.

Regarding `O=c1[nH]c2sc(Cl)c(-c3ccccc3)c2c(O)c1-c1ccc(C(F)(F)F)cc1` [Compound 171], in test [1], the “activity: Ratio between the % of control” value is 147%. Also, the “Activity (table III): Concentration” value in test [2] was “+ (^+ or *concentration of compound (I) >10 micro Molar)”.

Regarding `COc1ccc(-c2c(O)c3c(-c4ccccc4)csc3[nH]c2=O)cc1` [Compound 19], in test [1], the “activity: Ratio between the % of control” value amounted to 96%. For the same compound, the “Activity (table III): Concentration” value in test [2] is “* (^+ or *concentration of compound (I) >10 micro Molar)”.

`Cc1ccc(-c2c(Cl)sc3[nH]c(=O)c(-c4cccnc4)c(O)c23)c(O)c1` [Compound 195]: the “activity: Ratio between the % of control” value in test [1] came out at 156%. For the same compound, the “Activity (table III): Concentration” value in test [2] is listed as “+ (^+ or *concentration of compound (I) >10 micro Molar)”.

For the compound `Cc1cccc(-c2c(O)c3c(-c4ccccc4)c(Cl)sc3[nH]c2=O)c1` [Compound 176], in test [1], the “activity: Ratio between the % of control” value was 245%. In addition, the “Activity (table III): Concentration” value in test [2] is “++ (^++ or **concentration of compound (I) ≦10 micro Molar)”.

Take `O=c1[nH]c2sc(Cl)c(-c3ccc(O)cc3)c2c(O)c1-c1ccccc1` [Compound 138]: the “activity: Ratio between the % of control” value in test [1] is on record as 114%. The “Activity (table III): Concentration” value in test [2] was “** (^++ or **concentration of compound (I) ≦10 micro Molar)”.

With `COc1ccc(-c2c(O)c3c(-c4ccccc4)c(Cl)sc3[nH]c2=O)cn1` [Compound 167], the “activity: Ratio between the % of control” value in test [1] amounted to 592%. In test [2], the “Activity (table III): Concentration” value is “++ (^++ or **concentration of compound (I) ≦10 micro Molar)”.

Turning to `Cc1ccc(-c2c(O)c3c(-c4ccc(F)cc4O)csc3[nH]c2=O)cc1` [Compound 188], the “activity: Ratio between the % of control” value in test [1] stood at 183%. For the same compound, the “Activity (table III): Concentration” value in test [2] is recorded as “+ (^+ or *concentration of compound (I) >10 micro Molar)”.

Take `O=c1[nH]c2scc(-c3ccccc3)c2c(O)c1-c1ccc(O)cc1` [Compound 20]: the “activity: Ratio between the % of control” value in test [1] is given as 99%. The “Activity (table III): Concentration” value in test [2] is reported as “* (^+ or *concentration of compound (I) >10 micro Molar)”.

Take `N#Cc1sc2[nH]c(=O)c(-c3ccccc3)c(O)c2c1-c1ccccc1` [Compound 9, 2-cyano-3,5-diphenyl-4-hydroxy-6,7-dihydro-thieno[2,3-]pyridin-6-one]: in test [1], the “activity: Ratio between the % of control” value is reported as 410%. In addition, the “Activity (table III): Concentration” value in test [2] is on record as “* (^+ or *concentration of compound (I) >10 micro Molar)”.

For `O=c1[nH]c2sc(Cl)c(-c3cc(F)c(F)cc3O)c2c(O)c1-c1ccccc1` [Compound 193], the “activity: Ratio between the % of control” value in test [1] is reported as 139%. In addition, in test [2], the “Activity (table III): Concentration” value is recorded as “+ (^+ or *concentration of compound (I) >10 micro Molar)”.

Take `O=c1[nH]c2sc(Cl)c(-c3ccccc3O)c2c(O)c1-c1ccccc1` [Compound 121]: in test [1], the “activity: Ratio between the % of control” value is 143%. In test [2], the “Activity (table III): Concentration” value is “* (^+ or *concentration of compound (I) >10 micro Molar)”.

With `NC(=O)c1ncn([C@@H]2O[C@H](CO)[C@@H](O)[C@H]2O)c1N` [AICAR], in test [3], the “reduction of blood glucose” value is recorded as 35%.

As for `COc1ccc(-c2c(O)c3c(-c4ccccc4)c(C)sc3[nH]c2=O)cc1` [Compound 13], in test [1], the “activity: Ratio between the % of control” value is 126%. Further, in test [2], the “Activity (table III): Concentration” value is reported as “* (^+ or *concentration of compound (I) >10 micro Molar)”.

On to `O=c1[nH]c2sc(Cl)c(-c3ccc(F)c(F)c3O)c2c(O)c1-c1ccccc1` [Compound 208], for which the “activity: Ratio between the % of control” value in test [1] came out at 131%. Further, in test [2], the “Activity (table III): Concentration” value is reported as “+ (^+ or *concentration of compound (I) >10 micro Molar)”.

As for `COc1c(-c2c(Cl)sc3[nH]c(=O)c(-c4ccccc4)c(O)c23)ccc(C)c1C` [Compound 201], the “activity: Ratio between the % of control” value in test [1] was determined as 122%. Besides, the “Activity (table III): Concentration” value in test [2] was “+ (^+ or *concentration of compound (I) >10 micro Molar)”.

On to `O=c1[nH]c2sc(Cl)c(-c3cccc(F)c3)c2c(O)c1-c1ccccc1` [Compound 126], for which, in test [1], the “activity: Ratio between the % of control” value stood at 98%. For the same compound, the “Activity (table III): Concentration” value in test [2] is “* (^+ or *concentration of compound (I) >10 micro Molar)”.

Regarding `CCCc1ccc(-c2c(Cl)sc3[nH]c(=O)c(-c4ccccc4)c(O)c23)cc1` [Compound 183], the “activity: Ratio between the % of control” value in test [1] is 146%. For the same compound, the “Activity (table III): Concentration” value in test [2] is reported as “+ (^+ or *concentration of compound (I) >10 micro Molar)”.
